Experimental data as given in patent US20030060397A1, “Method of treating and preventing acute neural lesions with substances that modulate the expression or function of a protein involved in the cell cycle and pharmaceutical preparations containing such substances” (priority 2000, published 2003).

Experiments:
cyclin D1 = assay: Western blot of cyclin D1 expression after exposure to kainate, normalized by class III β-tubulin; type: cell-based, Wistar rats; conditions: kainate 75 μM, 100% before kainate
Method: After exposure of the hippocampus cells to kainate, the cells were washed in PBS then lysed in a Laemli buffer. The samples were subjected to sonication and heated at 100° C. for 5 minutes. Electrophoresis with a 12% SDS-polyacrylamide gel was then performed. The proteins were then transferred onto a nitrocellulose membrane and incubated with an anti-cyclin D1 monoclonal antibody or with an anti-CDK5 polyclonal antibody (Santa Cruz, Calif., USA) or with a class III anti-β-tubulin monoclonal antibody (Sigma, St. Louis, USA), a specific neuronal marker. Labeling was performed using the anti-rabbit antibody or anti-mouse antibody coupled to horseradish peroxidase using the ECLTM kit (Amersham Corp., England). The control experiments were performed by omitting the first antibodies.

hippocampus cells = assay: Kainate-dependent neuronal death in primary hippocampus cell cultures (propidium iodine); type: cell-based, Wistar rats; conditions: kainate 20 μM
Method: Neuronal death was analyzed by phase contrast microscopy and the use of two death markers: propidium iodine and Hoechst dye (Bisbenzimide).
Counting was performed on hippocampus cultures exposed to 20 μM of kainate. At least two dishes per condition were evaluated.

[1] = tested on: excitotoxic neuronal death induced by kainate; conditions: inhibitors of caspases; cited from earlier work
[2] = 5 hours, in the absence of inhibitor

| Molecule | normalized level of expression of cyclin D1 (percentage of the control) (cyclin D1) | augmentation of neuronal death in relation to the cultures without kainate (hippocampus cells; [2]) [%] | neuronal death (hippocampus cells; [2]) [%] | time of mortality peak (hippocampus cells; propidium iodine) [h] | prevention of excitotoxic neuronal death induced by kainate [1] |
| --- | --- | --- | --- | --- | --- |
| C=C(C)[C@H]1CN[C@H](C(=O)O)[C@H]1CC(=O)O [kainate] | more than 150% | 150 | ~65 | 5 | – |
| DEVD-CHO | – | – | – | – | can not be prevented |
| YVAD-CHO | – | – | – | – | can not be prevented |
